Experiments:
Type in all cases: binding
broad panel of kinases [1] = molecular target: broad panel of kinases (Homo sapiens, UniProt O43293); conditions: DAPK3; 1 μM
broad panel of kinases [2] = molecular target: broad panel of kinases (Homo sapiens, UniProt O60331); conditions: PIP5K1C; 1 μM
broad panel of kinases [3] = molecular target: broad panel of kinases (Homo sapiens, UniProt O75747); conditions: PIK3C2G; 1 μM
broad panel of kinases [4] = molecular target: broad panel of kinases (Homo sapiens, UniProt O95382); conditions: ASK2; 1 μM
broad panel of kinases [5] = molecular target: broad panel of kinases (Homo sapiens, UniProt P00533, DEL746-750); conditions: EGFR(E746-A750del); 1 μM
Sequence of broad panel of kinases (Homo sapiens, UniProt P00533, DEL746-750) (P00533 with tags, fused parts or gaps DEL746-750 limits assumed): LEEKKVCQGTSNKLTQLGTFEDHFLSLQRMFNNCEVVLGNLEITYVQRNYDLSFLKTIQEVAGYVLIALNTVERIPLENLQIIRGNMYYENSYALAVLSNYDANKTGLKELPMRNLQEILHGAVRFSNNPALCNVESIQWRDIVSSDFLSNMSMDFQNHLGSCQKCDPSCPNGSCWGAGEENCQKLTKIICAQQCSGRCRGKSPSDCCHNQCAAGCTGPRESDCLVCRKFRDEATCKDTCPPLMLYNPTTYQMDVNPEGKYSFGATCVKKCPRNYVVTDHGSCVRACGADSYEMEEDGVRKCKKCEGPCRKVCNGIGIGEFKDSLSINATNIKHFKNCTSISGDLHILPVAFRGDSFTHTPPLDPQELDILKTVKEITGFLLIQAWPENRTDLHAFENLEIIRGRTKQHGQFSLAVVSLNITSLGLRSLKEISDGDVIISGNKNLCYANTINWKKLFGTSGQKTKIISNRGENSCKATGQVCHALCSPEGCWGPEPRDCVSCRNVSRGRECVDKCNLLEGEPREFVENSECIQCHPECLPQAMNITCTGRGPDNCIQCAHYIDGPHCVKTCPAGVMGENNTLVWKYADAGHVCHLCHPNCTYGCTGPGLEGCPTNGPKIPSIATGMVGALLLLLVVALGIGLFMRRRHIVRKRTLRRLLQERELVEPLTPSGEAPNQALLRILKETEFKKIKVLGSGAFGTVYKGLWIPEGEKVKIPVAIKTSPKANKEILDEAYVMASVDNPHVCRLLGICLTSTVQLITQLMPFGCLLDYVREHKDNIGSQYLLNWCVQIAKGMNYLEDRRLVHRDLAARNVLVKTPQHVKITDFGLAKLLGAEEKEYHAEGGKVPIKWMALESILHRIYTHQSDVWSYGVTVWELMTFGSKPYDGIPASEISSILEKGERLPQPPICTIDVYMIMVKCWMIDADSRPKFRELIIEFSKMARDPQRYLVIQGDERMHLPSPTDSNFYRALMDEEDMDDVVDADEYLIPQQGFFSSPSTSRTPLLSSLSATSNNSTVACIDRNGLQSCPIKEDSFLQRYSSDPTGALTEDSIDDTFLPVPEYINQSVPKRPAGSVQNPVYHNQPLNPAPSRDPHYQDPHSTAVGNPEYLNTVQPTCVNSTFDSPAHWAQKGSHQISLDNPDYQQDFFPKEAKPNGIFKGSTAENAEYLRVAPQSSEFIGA

broad panel of kinases [6] = molecular target: broad panel of kinases (Homo sapiens, UniProt P00533, L858R/T790M); conditions: EGFR(L858R, T790M); 1 μM
Sequence of broad panel of kinases (Homo sapiens, UniProt P00533, L858R/T790M) (P00533 25-1210 T790M/L858R limits assumed): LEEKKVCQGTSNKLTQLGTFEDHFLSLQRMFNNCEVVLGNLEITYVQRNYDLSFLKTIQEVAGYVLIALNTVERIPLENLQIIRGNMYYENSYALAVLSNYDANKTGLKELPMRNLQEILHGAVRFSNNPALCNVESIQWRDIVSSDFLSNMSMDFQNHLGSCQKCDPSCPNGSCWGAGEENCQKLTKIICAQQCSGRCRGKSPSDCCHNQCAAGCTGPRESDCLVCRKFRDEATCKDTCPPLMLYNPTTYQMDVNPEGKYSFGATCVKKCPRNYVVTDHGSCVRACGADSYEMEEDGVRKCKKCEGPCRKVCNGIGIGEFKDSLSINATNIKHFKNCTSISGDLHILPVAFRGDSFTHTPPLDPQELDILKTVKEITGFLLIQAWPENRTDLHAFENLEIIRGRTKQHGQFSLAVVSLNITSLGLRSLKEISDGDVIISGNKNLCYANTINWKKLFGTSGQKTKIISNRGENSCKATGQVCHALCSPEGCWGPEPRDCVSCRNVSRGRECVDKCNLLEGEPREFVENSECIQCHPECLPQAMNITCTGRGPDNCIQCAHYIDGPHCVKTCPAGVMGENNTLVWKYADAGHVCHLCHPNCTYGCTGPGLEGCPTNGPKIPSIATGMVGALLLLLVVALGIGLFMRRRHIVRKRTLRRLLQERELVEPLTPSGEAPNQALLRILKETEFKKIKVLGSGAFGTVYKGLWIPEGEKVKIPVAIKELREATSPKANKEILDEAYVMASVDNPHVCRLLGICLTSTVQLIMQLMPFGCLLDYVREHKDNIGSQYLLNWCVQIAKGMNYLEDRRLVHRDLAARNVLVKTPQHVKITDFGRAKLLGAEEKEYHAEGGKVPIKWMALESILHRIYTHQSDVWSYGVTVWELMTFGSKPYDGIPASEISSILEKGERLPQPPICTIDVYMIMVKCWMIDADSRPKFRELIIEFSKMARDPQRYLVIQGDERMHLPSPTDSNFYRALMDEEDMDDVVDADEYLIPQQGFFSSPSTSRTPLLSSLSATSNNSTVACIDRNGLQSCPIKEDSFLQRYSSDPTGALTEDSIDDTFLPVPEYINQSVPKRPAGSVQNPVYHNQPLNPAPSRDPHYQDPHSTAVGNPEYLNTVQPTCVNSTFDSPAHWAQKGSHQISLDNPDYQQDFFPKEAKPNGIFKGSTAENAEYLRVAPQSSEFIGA

broad panel of kinases [7] = molecular target: broad panel of kinases (Homo sapiens, UniProt P10721, D816V); conditions: KIT(D816V); 1 μM
Sequence of broad panel of kinases (Homo sapiens, UniProt P10721, D816V) (P10721 26-976 D816V limits assumed): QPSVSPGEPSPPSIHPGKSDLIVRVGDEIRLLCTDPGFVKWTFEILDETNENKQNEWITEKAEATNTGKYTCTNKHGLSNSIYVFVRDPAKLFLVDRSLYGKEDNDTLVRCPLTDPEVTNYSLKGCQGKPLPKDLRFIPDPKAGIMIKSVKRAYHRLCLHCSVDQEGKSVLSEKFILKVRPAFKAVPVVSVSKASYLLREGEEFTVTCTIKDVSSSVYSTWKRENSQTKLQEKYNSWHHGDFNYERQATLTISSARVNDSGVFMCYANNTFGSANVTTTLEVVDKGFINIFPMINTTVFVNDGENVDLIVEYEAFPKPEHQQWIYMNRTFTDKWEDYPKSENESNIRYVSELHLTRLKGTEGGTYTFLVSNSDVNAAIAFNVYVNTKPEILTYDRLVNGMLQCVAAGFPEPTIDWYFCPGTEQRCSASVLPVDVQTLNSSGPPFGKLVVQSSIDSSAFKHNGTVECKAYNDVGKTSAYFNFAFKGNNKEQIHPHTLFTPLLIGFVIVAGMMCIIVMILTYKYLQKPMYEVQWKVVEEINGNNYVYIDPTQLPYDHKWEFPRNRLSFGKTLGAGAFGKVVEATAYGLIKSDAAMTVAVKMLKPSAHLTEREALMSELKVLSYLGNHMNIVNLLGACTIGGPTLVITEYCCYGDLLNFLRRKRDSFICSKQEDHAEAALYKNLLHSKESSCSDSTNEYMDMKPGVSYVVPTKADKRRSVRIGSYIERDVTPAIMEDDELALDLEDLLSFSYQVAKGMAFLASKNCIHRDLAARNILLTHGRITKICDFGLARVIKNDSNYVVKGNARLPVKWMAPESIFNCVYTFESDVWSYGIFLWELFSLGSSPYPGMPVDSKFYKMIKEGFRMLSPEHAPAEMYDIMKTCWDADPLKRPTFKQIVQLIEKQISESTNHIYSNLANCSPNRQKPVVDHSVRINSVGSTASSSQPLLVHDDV

broad panel of kinases [8] = molecular target: broad panel of kinases (Homo sapiens, UniProt P15735); conditions: PHKG2; 1 μM
broad panel of kinases [9] = molecular target: broad panel of kinases (Homo sapiens, UniProt P29317); conditions: EPHA2; 1 μM
broad panel of kinases [10] = molecular target: broad panel of kinases (Homo sapiens, UniProt P35916); conditions: FLT4; 1 μM
broad panel of kinases [11] = molecular target: broad panel of kinases (Homo sapiens, UniProt P49137)
broad panel of kinases [12] = molecular target: broad panel of kinases (Homo sapiens, UniProt P49760); conditions: CLK2; 1 μM
broad panel of kinases [13] = molecular target: broad panel of kinases (Homo sapiens, UniProt P51617); conditions: IRAK1; 1 μM
broad panel of kinases [14] = molecular target: broad panel of kinases (Homo sapiens, UniProt P51955); conditions: NEK2; 1 μM
broad panel of kinases [15] = molecular target: broad panel of kinases (Homo sapiens, UniProt P57059); conditions: SIK; 1 μM
broad panel of kinases [16] = molecular target: broad panel of kinases (Homo sapiens, UniProt Q00537); conditions: PCTK2; 1 μM
broad panel of kinases [17] = molecular target: broad panel of kinases (Homo sapiens, UniProt Q02763); conditions: TIE2; 1 μM
Sequence of broad panel of kinases (Homo sapiens, UniProt Q02763) (Q02763 23-1124 limits assumed): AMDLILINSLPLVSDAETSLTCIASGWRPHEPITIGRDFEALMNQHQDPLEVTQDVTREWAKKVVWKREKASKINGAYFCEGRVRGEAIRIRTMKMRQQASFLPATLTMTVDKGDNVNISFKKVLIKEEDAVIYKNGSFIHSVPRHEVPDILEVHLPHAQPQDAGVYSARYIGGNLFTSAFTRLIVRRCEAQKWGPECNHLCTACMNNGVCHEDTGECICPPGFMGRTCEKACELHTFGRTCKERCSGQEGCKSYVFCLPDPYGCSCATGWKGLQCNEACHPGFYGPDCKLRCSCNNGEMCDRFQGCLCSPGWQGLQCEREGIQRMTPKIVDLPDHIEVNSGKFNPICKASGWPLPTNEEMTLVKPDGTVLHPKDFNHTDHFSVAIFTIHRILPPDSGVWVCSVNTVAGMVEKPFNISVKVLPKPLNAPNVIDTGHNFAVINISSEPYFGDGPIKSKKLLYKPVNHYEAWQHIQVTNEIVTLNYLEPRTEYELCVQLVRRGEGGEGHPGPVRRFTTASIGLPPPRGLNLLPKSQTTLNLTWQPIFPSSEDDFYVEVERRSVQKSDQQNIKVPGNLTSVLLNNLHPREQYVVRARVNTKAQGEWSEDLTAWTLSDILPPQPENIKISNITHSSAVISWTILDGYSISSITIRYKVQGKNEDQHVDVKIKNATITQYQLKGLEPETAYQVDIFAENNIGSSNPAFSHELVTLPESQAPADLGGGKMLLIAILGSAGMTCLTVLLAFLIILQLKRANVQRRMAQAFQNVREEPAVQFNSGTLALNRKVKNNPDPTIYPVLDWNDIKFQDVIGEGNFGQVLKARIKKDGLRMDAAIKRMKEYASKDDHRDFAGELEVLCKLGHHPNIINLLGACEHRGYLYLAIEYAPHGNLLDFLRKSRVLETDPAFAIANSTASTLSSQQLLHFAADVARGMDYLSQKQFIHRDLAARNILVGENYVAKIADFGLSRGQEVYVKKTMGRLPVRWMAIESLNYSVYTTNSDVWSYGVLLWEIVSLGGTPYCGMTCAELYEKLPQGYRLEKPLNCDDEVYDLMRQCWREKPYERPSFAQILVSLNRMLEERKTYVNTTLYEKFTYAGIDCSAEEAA

broad panel of kinases [18] = molecular target: broad panel of kinases (Homo sapiens, UniProt Q02779); conditions: MLK2; 1 μM
broad panel of kinases [19] = molecular target: broad panel of kinases (Homo sapiens, UniProt Q05655); conditions: PRKCD; 1 μM
broad panel of kinases [20] = molecular target: broad panel of kinases (Homo sapiens, UniProt Q13153); conditions: PAK1; 1 μM
Sequence of broad panel of kinases (Homo sapiens, UniProt Q13153) (Q13153 2-545 limits assumed): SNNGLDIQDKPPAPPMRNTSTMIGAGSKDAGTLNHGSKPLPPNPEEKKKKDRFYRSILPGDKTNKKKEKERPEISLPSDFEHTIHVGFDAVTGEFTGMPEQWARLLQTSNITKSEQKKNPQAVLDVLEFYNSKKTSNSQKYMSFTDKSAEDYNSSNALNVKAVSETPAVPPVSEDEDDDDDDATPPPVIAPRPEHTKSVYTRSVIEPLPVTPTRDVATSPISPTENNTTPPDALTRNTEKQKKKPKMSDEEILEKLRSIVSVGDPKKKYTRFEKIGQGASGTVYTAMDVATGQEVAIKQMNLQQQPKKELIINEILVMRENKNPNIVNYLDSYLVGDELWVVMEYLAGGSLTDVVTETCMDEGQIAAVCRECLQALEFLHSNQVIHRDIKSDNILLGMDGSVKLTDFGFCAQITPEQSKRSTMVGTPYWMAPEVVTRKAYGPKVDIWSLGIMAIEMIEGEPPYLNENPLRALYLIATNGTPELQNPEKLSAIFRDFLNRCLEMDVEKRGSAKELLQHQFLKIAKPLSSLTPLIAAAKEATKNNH

broad panel of kinases [21] = molecular target: broad panel of kinases (Homo sapiens, UniProt Q13557); conditions: CAMK2D; 1 μM
broad panel of kinases [22] = molecular target: broad panel of kinases (Homo sapiens, UniProt Q15303); conditions: ERBB4; 1 μM
broad panel of kinases [23] = molecular target: broad panel of kinases (Homo sapiens, UniProt Q16816); conditions: PHKG1; 1 μM
broad panel of kinases [24] = molecular target: broad panel of kinases (Homo sapiens, UniProt Q52WX2); conditions: SBK1; 1 μM
broad panel of kinases [25] = molecular target: broad panel of kinases (Homo sapiens, UniProt Q59H18); conditions: TNNI3K; 1 μM
broad panel of kinases [26] = molecular target: broad panel of kinases (Homo sapiens, UniProt Q6ZN16); conditions: MAP3K15; 1 μM
broad panel of kinases [27] = molecular target: broad panel of kinases (Homo sapiens, UniProt Q86Y07); conditions: VRK2; 1 μM
broad panel of kinases [28] = molecular target: broad panel of kinases (Homo sapiens, UniProt Q8N568); conditions: DCAMKL2; 1 μM
broad panel of kinases [29] = molecular target: broad panel of kinases (Homo sapiens, UniProt Q96GD4); conditions: AURKB; 1 μM
broad panel of kinases [30] = molecular target: broad panel of kinases (Homo sapiens, UniProt Q99640); conditions: PKMYT1; 1 μM
broad panel of kinases [31] = molecular target: broad panel of kinases (Homo sapiens, UniProt Q9NQU5); conditions: PAK6; 1 μM
broad panel of kinases [32] = molecular target: broad panel of kinases (Homo sapiens, UniProt Q9NWZ3); conditions: IRAK4; 1 μM
broad panel of kinases [33] = molecular target: broad panel of kinases (Homo sapiens, UniProt Q9UPE1); conditions: SRPK3; 1 μM
broad panel of kinases [34] = molecular target: broad panel of kinases (Homo sapiens, UniProt Q9Y243); conditions: AKT3; 1 μM
broad panel of kinases [35] = molecular target: broad panel of kinases (Homo sapiens, UniProt Q9Y2K2); conditions: QSK; 1 μM
broad panel of kinases [36] = molecular target: broad panel of kinases (Homo sapiens, UniProt Q9Y463); conditions: DYRK1B; 1 μM
broad panel of kinases [37] = molecular target: broad panel of kinases (Homo sapiens, UniProt Q9Y4K4); conditions: MAP4K5; 1 μM

Compound	percent of control binding remaining (lower = stronger binding) (broad panel of kinases [1]) [%]	percent of control binding remaining (lower = stronger binding) (broad panel of kinases [2]) [%]	percent of control binding remaining (lower = stronger binding) (broad panel of kinases [3]) [%]	percent of control binding remaining (lower = stronger binding) (broad panel of kinases [4]) [%]	percent of control binding remaining (lower = stronger binding) (broad panel of kinases [5]) [%]	percent of control binding remaining (lower = stronger binding) (broad panel of kinases [6]) [%]	percent of control binding remaining (lower = stronger binding) (broad panel of kinases [7]) [%]	percent of control binding remaining (lower = stronger binding) (broad panel of kinases [8]) [%]	percent of control binding remaining (lower = stronger binding) (broad panel of kinases [9]) [%]	percent of control binding remaining (lower = stronger binding) (broad panel of kinases [10]) [%]	% change compared to control (broad panel of kinases [11]) [%]	percent of control binding remaining (lower = stronger binding) (broad panel of kinases [12]) [%]	percent of control binding remaining (lower = stronger binding) (broad panel of kinases [13]) [%]	percent of control binding remaining (lower = stronger binding) (broad panel of kinases [14]) [%]	percent of control binding remaining (lower = stronger binding) (broad panel of kinases [15]) [%]	percent of control binding remaining (lower = stronger binding) (broad panel of kinases [16]) [%]	percent of control binding remaining (lower = stronger binding) (broad panel of kinases [18]) [%]	percent of control binding remaining (lower = stronger binding) (broad panel of kinases [19]) [%]	percent of control binding remaining (lower = stronger binding) (broad panel of kinases [20]) [%]	percent of control binding remaining (lower = stronger binding) (broad panel of kinases [21]) [%]	also measured
C=CC(=O)N1CC[C@H](Nc2nc(CN3CCOCC3)cc(Nc3ncc(C(=O)Nc4c(C)cccc4C)s3)n2)C1 [Example I-2]	89	99	92	92	3.7	48	1.7	96	0.2	95	100	100	84	100	0.8	100	100	96	100	91	percent of control binding remaining (lower = stronger binding) (broad panel of kinases [17]): 100%; percent of control binding remaining (lower = stronger binding) (broad panel of kinases [22]): 0.6%; percent of control binding remaining (lower = stronger binding) (broad panel of kinases [23]): 100%; percent of control binding remaining (lower = stronger binding) (broad panel of kinases [24]): 54%; percent of control binding remaining (lower = stronger binding) (broad panel of kinases [25]): 16%; percent of control binding remaining (lower = stronger binding) (broad panel of kinases [26]): 92%; percent of control binding remaining (lower = stronger binding) (broad panel of kinases [27]): 94%; percent of control binding remaining (lower = stronger binding) (broad panel of kinases [28]): 98%; percent of control binding remaining (lower = stronger binding) (broad panel of kinases [29]): 96%; percent of control binding remaining (lower = stronger binding) (broad panel of kinases [30]): 59%; percent of control binding remaining (lower = stronger binding) (broad panel of kinases [31]): 93%; percent of control binding remaining (lower = stronger binding) (broad panel of kinases [32]): 76%; percent of control binding remaining (lower = stronger binding) (broad panel of kinases [33]): 100%; percent of control binding remaining (lower = stronger binding) (broad panel of kinases [34]): 90%; percent of control binding remaining (lower = stronger binding) (broad panel of kinases [35]): 36%; percent of control binding remaining (lower = stronger binding) (broad panel of kinases [36]): 94%; percent of control binding remaining (lower = stronger binding) (broad panel of kinases [37]): 82%
C=CC(=O)N1CC[C@H](Nc2nccc(Nc3ncc(C(=O)Nc4c(C)cccc4C)s3)n2)C1 [Example I-3]	84	65	97	98	2.9	42	14	94	0.6	100	100	96	93	96	0.4	81	95	95	95	92	% change compared to control (broad panel of kinases [17]): 100%; percent of control binding remaining (lower = stronger binding) (broad panel of kinases [22]): 0.2%; percent of control binding remaining (lower = stronger binding) (broad panel of kinases [23]): 99%; percent of control binding remaining (lower = stronger binding) (broad panel of kinases [24]): 58%; percent of control binding remaining (lower = stronger binding) (broad panel of kinases [25]): 44%; percent of control binding remaining (lower = stronger binding) (broad panel of kinases [26]): 100%; percent of control binding remaining (lower = stronger binding) (broad panel of kinases [27]): 70%; percent of control binding remaining (lower = stronger binding) (broad panel of kinases [28]): 93%; percent of control binding remaining (lower = stronger binding) (broad panel of kinases [29]): 100%; percent of control binding remaining (lower = stronger binding) (broad panel of kinases [30]): 47%; percent of control binding remaining (lower = stronger binding) (broad panel of kinases [31]): 84%; percent of control binding remaining (lower = stronger binding) (broad panel of kinases [32]): 96%; percent of control binding remaining (lower = stronger binding) (broad panel of kinases [33]): 97%; percent of control binding remaining (lower = stronger binding) (broad panel of kinases [34]): 81%; percent of control binding remaining (lower = stronger binding) (broad panel of kinases [35]): 50%; percent of control binding remaining (lower = stronger binding) (broad panel of kinases [36]): 74%; percent of control binding remaining (lower = stronger binding) (broad panel of kinases [37]): 96%

From patent US10844077B2, “Thiazolyl-containing compounds for treating proliferative diseases” (Dana-Farber Cancer Institute, Inc., priority 2014, dated 2020)
